Patent US12558336B2, “Metabolic rescue of retinal degeneration” (The Board of Trustees of the Leland Stanford Junior …, priority 2019, dated 2026)
“Also recorded” adds a separate entry of the source.

Key:
[1] = tested on: Pde6α^D670G mice; assay: Electroretinography (ERG) of treated Pde6α^D670G arRP mice; details: vs untreated Pde6α^D670G mice, one month of age
Procedure: Mouse lines and husbandry—C57BL/6J-Pde6α^nmf363/nmf363, with a D670G mutation, herein referred to as Pde6α^D670G, mice were obtained from the Jackson Laboratory (Bar Harbor, ME, USA). Pde6α^D670G are co-isogenic in the C57BL/6J (B6) background; therefore, age-matched B6 mice were used as experimental controls. Mice were bred and maintained at the facilities of Columbia University and Stanford University. Animals were kept on a light-dark cycle (12 hour-12 hour). Food and water were available ad libitum throughout the experiment, whether treated or untreated. Dark-raising was performed under 24 hr dark cycle following approved institutional guidelines. […] All water bottles were covered in foil to reduce light exposure and changed weekly during the duration of the experiment following approved institutional guidelines.
Electroretinography (ERG)—Mice were dark-adapted overnight, manipulations were conducted under dim red-light illumination, and recordings were made using Espion or Celeris ERG Diagnosys equipment (Diagnosys LLL, Littleton, MA, USA) as previously described. Briefly, adult B6 control mice were tested at the beginning of each session to ensure equal readouts from the electrodes for both eyes before testing the experimental mice. Pupils were dilated using topical 2.5% phenylephrine hydrochloride and 1% tropicamide (Akorn Inc., Lakeforest, IL, USA). Mice were anesthetized by intraperitoneal injection of 0.1 ml/10 g body weight of anesthesia [1 ml ketamine 100 mg/ml (Ketaset III, Fort Dodge, IA, USA) and 0.1 ml xylazine 20 mg/ml (Lloyd Laboratories, Shenandoah, IA, USA) in 8.9 ml PBS]. Body temperature was maintained at 37° C. during the procedure. Both eyes were recorded simultaneously and responses were averaged for each trial. Responses were taken from the Espion/Celeris readout in microvolts.
Statistical and bioinformatics analysis—Results were also saved in Excel as .txt format and were uploaded into the Partek Genomics Suite 6.5 software package as described previously (5-9). The data was normalized to log base 2 and compared using 1-way ANOVA analysis. All proteins with non-significant (p>0.05) changes were eliminated from the table. The significant values were mapped using the ‘cluster based on significant genes’ visualization function with the standardization option chosen. […] Differences in experimental groups were determined by the Student's t-test as appropriate, or by one-way ANOVA followed by Tukey's post-hoc multiple comparison's test. p values <0.05 were considered significant. For ERG and histological analysis of mouse eyes, differences were determined by the Student's t-test as appropriate, or by one-way ANOVA followed by Tukey's post-hoc multiple comparison's test. p values<0.05 were considered significant.

[2] = tested on: Pde6α^D670G mice; assay: Histological analysis of outer nuclear layer (ONL) thickness by number of photoreceptor cell nuclei; type: in vivo, mouse; details: vs untreated Pde6α^D670G mice, one month of age
Procedure: Histology—Mice were sacrificed and the eyes enucleated as previously described (19). Eyes were embedded in paraffin, sectioned, and stained with hematoxylin and eosin by Exaclibur Pathology, Inc. (Norman, OK), before being visualized by light microscopy (Leica DM 5000B, Leica Microsystems, Germany). Quantification of photoreceptor nuclei was conducted on several sections that contained the optic nerve, as follows: the distance between the optic nerve and the ciliary body was divided into four, approximately equal, quadrants. Three columns of nuclei (how many cell nuclei thick) were counted within each single quadrant. These counts were then used to determine the average thickness of the ONL for each individual animal at each time. Sectioning proceeded along the long axis of the segment, so that each section contained upper and lower retina as well as the posterior pole.
Gene ontology (GO) analysis was also performed in PANTHER.

| SMILES | maximum scotopic a-wave response, quantification of ERGs from a cohort of mice [1] | maximum scotopic b-wave response, quantification of ERGs from a cohort of mice [1] | rod photoreceptor cell response, quantification of ERGs from a cohort of mice [1] | rod photoreceptor cell response, scotopic 0.1 dim-light rod-specific ERG (representative traces) ([1]; vitamins 2.5 g/L or alpha-ketoglutarate 10 g/L in drinking water from P0, ketogenic diet from P21) | thickness of the outer nuclear layer (ONL) by number of photoreceptor cell nuclei [2] |
| --- | --- | --- | --- | --- | --- |
| NC(=O)c1cccnc1 [vitamin B3, Nicotinamide] | no significant visual rescue | no significant visual rescue | no significant visual rescue | increased rod photoreceptor functional response | – |
| O=C(O)CCC(=O)C(=O)O [alpha-ketoglutarate, Alpha-ketoglutaric acid] | – | – | – | – | significant rescue of photoreceptor cells and their inner/outer segments; also recorded: significant increase in the thickness of the outer nuclear layer (ONL) |
